Measurements taken from patent US20250213560A1, “NITROGEN-CONTAINING HETEROCYCLIC COMPOUNDS HAVING PHENYL GROUP AND USES THEREOF” (BNH RESEARCH CO., LTD., priority 2022, published 2025).
Entries after “also recorded” stand apart in the source; their conditions may differ.

Tests used:
[1] = system: GluN2B; experiment: GluN2B protein expression by Western blot in primary cortical neuron cells; format: cell-based, mouse
How it was run: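 Mouse fetal cortical neurons (E17–18) cultured 13–14 days, then treated with BnH compounds for 24 h. GluN2B in RIPA lysates (20 μg/lane) measured by Western blot, normalized to β-actin, and expressed relative to vehicle set to 1 (n ≥ 3).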

[2] = molecular target: T1, HDAC4 (Mus musculus, UniProt Q6NZM9); experiment: HDAC4 protein level in barrel cortex by Western blot; format: in vivo; details: mice barrel cortex
T1 construct: Cortical tissue from mice was prepared according to protocol above then was homogenized and lysed for protein extraction; from tissue; host or cells: barrel cortex of C57BL/6J mice

[3] = system: rodent (rat) model of post-traumatic stress disorder; experiment: Post-traumatic stress disorder animal model, freezing time; format: in vivo; details: PTSD rats, intraperitoneal 25 mg/kg, checked at 3-day intervals, compared to control group
Method: The animals were obtained from the DBL. Animals are obtained 7 days before the test start. Twenty male SD-rats aged about 7 weeks were used. Animals were maintained in conventional environmental conditions according to the 12/12 hours light-dark cycle in the colony room, with access to food and water ad libitum. The rats were acclimatized to their new housing cage over a period of 7 days. The animals were carried out for all tests. All experiments were performed in accordance with the Guide for the Care and Use of Laboratory Animals, and all efforts were made to minimize animal suffering. Weight was measured at 3-day intervals from Day 7.
This protocol involves two times exposure to foot shock without an opportunity of escape.
The weight was measured three hours before the experiment. The temperature of the laboratory was maintained at 22° C. The animals were placed in the dark laboratory space for 10 minutes to adapt. The animals were each placed in the first room. […]
The weight was measured three hours before the experiment. […]
For the freezing check, 7 days after the initial foot shock protocol, the rats were placed in the first compartment with sandpaper of the apparatus for 5 minutes (no foot shock) and the freezing behavior was recorded using shutavoid_v1803 program (Panlab, Spain) according to the manufacturer's instruction. […]

T1 sequence (Q6NZM9 whole entry): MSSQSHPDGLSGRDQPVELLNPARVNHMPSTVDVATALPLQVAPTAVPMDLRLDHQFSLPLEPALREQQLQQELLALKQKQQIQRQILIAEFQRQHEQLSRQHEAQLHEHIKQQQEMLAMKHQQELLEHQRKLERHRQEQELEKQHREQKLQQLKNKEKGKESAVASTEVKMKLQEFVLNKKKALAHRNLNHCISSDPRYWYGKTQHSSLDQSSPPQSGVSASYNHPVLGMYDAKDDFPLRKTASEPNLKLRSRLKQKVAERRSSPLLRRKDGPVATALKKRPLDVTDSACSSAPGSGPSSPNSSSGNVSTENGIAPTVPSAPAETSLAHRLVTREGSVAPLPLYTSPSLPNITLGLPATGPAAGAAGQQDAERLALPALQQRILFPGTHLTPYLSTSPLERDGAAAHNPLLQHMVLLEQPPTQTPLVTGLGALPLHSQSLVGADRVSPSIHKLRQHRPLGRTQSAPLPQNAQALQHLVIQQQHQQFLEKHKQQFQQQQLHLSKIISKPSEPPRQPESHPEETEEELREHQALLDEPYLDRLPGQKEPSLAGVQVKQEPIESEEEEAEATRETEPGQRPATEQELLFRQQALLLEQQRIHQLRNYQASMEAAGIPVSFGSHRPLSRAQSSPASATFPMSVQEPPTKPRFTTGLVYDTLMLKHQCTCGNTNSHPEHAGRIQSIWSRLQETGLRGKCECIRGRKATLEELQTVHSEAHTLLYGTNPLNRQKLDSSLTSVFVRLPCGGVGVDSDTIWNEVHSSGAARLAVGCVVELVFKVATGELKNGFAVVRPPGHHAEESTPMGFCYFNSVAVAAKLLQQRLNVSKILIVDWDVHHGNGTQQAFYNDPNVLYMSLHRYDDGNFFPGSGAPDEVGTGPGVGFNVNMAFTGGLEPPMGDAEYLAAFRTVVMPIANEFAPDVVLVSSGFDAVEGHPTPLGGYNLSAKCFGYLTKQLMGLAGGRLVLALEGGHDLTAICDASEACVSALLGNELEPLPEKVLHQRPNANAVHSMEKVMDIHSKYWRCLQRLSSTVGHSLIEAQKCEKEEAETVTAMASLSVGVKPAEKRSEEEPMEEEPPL

For C[C@H]1CC[C@@H](C(=O)O)CN1C(=O)Cc1ccc(-c2cncnc2)cc1 [BnH12003, (3R,6S)-6-methyl-1-(2-(4-(pyrimidin-5-yl)phenyl)acetyl) piperidine-3-carboxylic acid], the “GluN2B expression effect (in words)” value ([1]; compared to vehicle / other compounds, Table 5) was “excellent effects”, the “Western blot results Mean (GluN2B expression)” value ([1]; relative value, vehicle set to 1, primary cortical neurons treated for 24 hours) was 2.141 and the HDAC4 protein expression ([2]; intraperitoneal administration) was “significantly suppressed”. For the same molecule, the HDAC4 protein expression ([2]; oral administration) was “significantly suppressed”, the “duration of the inhibitory effect on HDAC4 protein expression” value ([2]; oral and intraperitoneal administration) was ≥ 10 days and the freezing time [3] was “liberated such rodents from trauma at a significantly faster rate; also recorded: significant decrease in freezing time”.
